Data: patent US20120251528A1, “Non-Human Mammal Model Of Human Hematopoietic Cancer” (priority 2009, published 2012)
Entries after “also recorded” stand apart in the source; their conditions may differ.

Columns and labels:
[1] = test system: GMB cells; assay: Antibody-dependent cellular cytotoxicity with thioglycollate induced macrophages from NSG mice in vitro; format: cell-based, human; conditions: for macrophage-mediated killing / lysis of leukemia cells: induced peritoneal NSG macrophages
From the text: (§1) Antibody-bound leukemic cells can also be killed by complement-mediated lysis.

[2] = test system: GFP/myc/bcl cells; assay: F(ab)2 fragments of Alemtuzumab injected to secondary GFP/myc/bcl mice (Fc-dependent effects); format: in vivo, mouse; conditions: injected day 14 after transplantation, vs Alemtuzumab control
From the text: as §1

[3] = test system: GFP/myc/bcl cells; assay: Cumulative survival of secondary GFP/myc/bcl mice, Alemtuzumab vs control; format: in vivo, mouse; conditions: Log-rank test; FIG. 4C
Description: (§3) Each mouse in a cohort of secondary mice was injected with ˜10^6 GFP+ cells from the same primary donor mouse. 18-20 days later, mice were divided into 2 groups, and stratified for the density of GFP+ cells found in their peripheral blood (i.e. having the same (or similar) number of GFP+ cells/uL of blood).
(§4) Two days after completing the course of treatment, several mice were euthanized and the number of GFP+ cells in various organs was determined.

[4] = test system: GFP/myc/bcl cells; assay: Complement-dependent cytotoxicity (CDC) in vitro, Annexin-V-PE/7-AAD flow cytometry; format: cell-based, human; conditions: 1-100 μg/ml, 48 h
Description: Media were supplemented with human, murine BL6- as NSG-derived serum. Serum-free media and heat-inactivated serum served as control. Cell viability was assessed by Annexin-V-PE/7-AAD flow cytometry after 48 h.
as §1

[5] = test system: ALL-cells; assay: Direct cytotoxic effects on ALL-cells in vitro; format: cell-based, human
From the text: as §1

[6] = test system: leukemic cells; assay: Alemtuzumab treatment of macrophage-depleted (clodronate liposomes) tumor-bearing mice; format: in vivo, mouse; conditions: treated 2 days after injection of clodronate liposomes
[7] = test system: GFP+ leukemic cells; assay: Combinatorial treatment of Alemtuzumab and cyclophosphamide in secondary GFP/myc/bcl mice: GFP+ cells per organ; format: in vivo, mouse; conditions: 9 days after beginning of treatment; for effect on the leukemia in the bone marrow: single treatment
Description: Absolute number of GFP+leukemic cells per organ was assessed by FACS and absolute count calculation.
Cohorts of secondary recipients were generated and divided into treatment groups as described above.

[8] = test system: GFP/myc/bcl cells; conditions: 5 mg/kg i.v. days 1, 4, 7, two days after completing treatment
Description: Mice were treated 14 days after transplantation while showing leukemic phenotype. […] Response to treatment was assessed after 7 days, a leukemic burden was measured by flow cytometry and calculating absolute cell count per organ.
as §3, §4

[9] = Alemtuzumab distribution in vivo, IVIS fluorometry; set-up: species or system mouse; conditions: 24 h; for tissue distribution of fluorescent signal (spleen, liver, bones): 5 mg/kg i.v.
Description: High signal in dissected whole brain.
(§2) Mice were sacrificed after 24 h and imaged at an IVIS fluorometer. […] Organs were homogenized and cells from these organs were directly assessed for Alemtuzumab-AlexaFluor750 binding by flow cytometry.

[10] = test system: GFP+ leukemia cells; assay: In vivo binding of GFP/myc/bcl cells by labeled Alemtuzumab, flow cytometry of homogenized organs; set-up: species or system mouse; conditions: 5 mg/kg, 24 h
Description: Organs were homogenized and antibody binding to cells detected by flow cytometry.
as §2

[11] = listed as Alemtuzumab-AlexaFluor750

F(ab)2 fragments of Alemtuzumab: pepsin-digested F(ab)2-fragments of Alemtuzumab lacking the Fc part
macrophage-mediated killing / lysis of leukemia cells [1]: no effect
macrophage-mediated killing / lysis of leukemia cells ([1]; listed as F(ab)2 fragments): No GFP/myc/bcl-directed killing
therapeutic effect in secondary GFP/myc/bcl mice [2]: no therapeutic effects
therapeutic effect in secondary GFP/myc/bcl mice ([2]; listed as F(ab)2-fragments of Alemtuzumab): no therapeutic effect

Alemtuzumab
survival vs PBS-treated control [3]: survived significantly longer; also recorded: significant prolonged survival
complement-dependent cytotoxicity, human serum ([4]; media with human serum): detected in human serum
complement-dependent cytotoxicity, murine sera ([4]; media with murine BL6- or NSG-derived serum): did not mediate Alemtuzumab mediated tumor cell killing; also recorded: not in murine sera
direct cytotoxic effects on ALL-cells [5]: no direct cytotoxic effects
time within which macrophages killed GMB cells ([1]; NSG macrophages in the presence of antibody): ≤ 13 h
macrophage-mediated killing / lysis of leukemia cells [1]: capable of ALL-cell lysis
reduction of leukemic cells in the spleen of macrophage-depleted mice [6]: no reduction of leukemic cells in the spleen
effect on GFP+ cells in the brain ([7]; single agent): no effect
effect on the leukemia in the bone marrow [7]: neither single treatment had much effect
number of GFP+ cells in bone marrow vs control mice ([8]; bone marrow): approximately the same
number of GFP+ cells in brain vs control mice ([8]; brain): approximately the same
decrease of GFP+ cells in liver vs PBS ([8]; liver): ~400 fold
decrease of GFP+ cells in peripheral blood vs PBS ([8]; peripheral blood): ~30 fold
decrease of GFP+ cells in spleen vs PBS ([8]; spleen): ~3300 fold

AlexaFluor750 labeled Alemtuzumab: Alemtuzumab labeled with AlexaFluor 750
tissue distribution of fluorescent signal (spleen, liver, bones) [9]: Intense staining of spleen, liver and bones
tissue distribution of fluorescent signal (spleen, liver, bones) ([9]; listed as Labeled Alemtuzumab): focused on spleen and bones
fluorescent signal in dissected whole brain ([9]; i.v.): High signal
antibody binding to GFP+ leukemia cells, bone marrow [10]: increased AlexaFLuor750 signal
antibody binding to GFP+ leukemia cells, spleen [10]: increased AlexaFLuor750 signal
antibody binding to brain-derived leukemia cells [10]: no detection could be detected
antibody binding to GFP+ leukemia cells, bone marrow [10, 11]: Strong antibody binding
antibody binding to GFP+ leukemia cells, spleen [10, 11]: Strong antibody binding
antibody binding to brain-derived leukemia cells [10, 11]: no specific binding

O=P1(N(CCCl)CCCl)NCCCO1 (stereo not drawn) [cyclophosphamide]
reduction of GFP+ cells found in the brain ([7]; 150 mg/kg i.p. days 1 and 2): ~300 fold
reduction of GFP+ cells in the peripheral blood ([7]; single agent): as effectively as the treatment using Alemtuzumab alone
effect on the leukemia in the bone marrow [7]: neither single treatment had much effect
